Measurements published in patent US7420056B2, “Substituted bicyclic imidazo-3-ylamine compounds” (Gruenenthal GmbH, priority 2004, dated 2008).
Where a name gives a salt, the structure may show the parent alone.

Target: mGluR5 receptor (Sus scrofa, UniProt I3LUI7)
Assay: Affinity for the mGluR5 receptor: inhibition of 3[H]-MPEP binding in pig brain homogenate
Conditions: for inhibition at 10 µM: 10 μM compound, 5 nM 3[H]-MPEP, read-out: mGluR5 receptor inhibition of ^3[H]-MPEP binding [10 μM] in % at a concentration of the example compounds of 10 μM
How it was run: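 Pig brain membranes (450 μg protein; hemispheres without medulla, cerebellum and pons) in 30 mM Hepes pH 8.0 were incubated 60 min at room temperature with 5 nM [3H]-MPEP and compound at 10 μM. Bound radioactivity was filtered and counted. Nonspecific binding was defined with 10 μM MPEP.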

Chain of mGluR5 receptor (I3LUI7 19-1212): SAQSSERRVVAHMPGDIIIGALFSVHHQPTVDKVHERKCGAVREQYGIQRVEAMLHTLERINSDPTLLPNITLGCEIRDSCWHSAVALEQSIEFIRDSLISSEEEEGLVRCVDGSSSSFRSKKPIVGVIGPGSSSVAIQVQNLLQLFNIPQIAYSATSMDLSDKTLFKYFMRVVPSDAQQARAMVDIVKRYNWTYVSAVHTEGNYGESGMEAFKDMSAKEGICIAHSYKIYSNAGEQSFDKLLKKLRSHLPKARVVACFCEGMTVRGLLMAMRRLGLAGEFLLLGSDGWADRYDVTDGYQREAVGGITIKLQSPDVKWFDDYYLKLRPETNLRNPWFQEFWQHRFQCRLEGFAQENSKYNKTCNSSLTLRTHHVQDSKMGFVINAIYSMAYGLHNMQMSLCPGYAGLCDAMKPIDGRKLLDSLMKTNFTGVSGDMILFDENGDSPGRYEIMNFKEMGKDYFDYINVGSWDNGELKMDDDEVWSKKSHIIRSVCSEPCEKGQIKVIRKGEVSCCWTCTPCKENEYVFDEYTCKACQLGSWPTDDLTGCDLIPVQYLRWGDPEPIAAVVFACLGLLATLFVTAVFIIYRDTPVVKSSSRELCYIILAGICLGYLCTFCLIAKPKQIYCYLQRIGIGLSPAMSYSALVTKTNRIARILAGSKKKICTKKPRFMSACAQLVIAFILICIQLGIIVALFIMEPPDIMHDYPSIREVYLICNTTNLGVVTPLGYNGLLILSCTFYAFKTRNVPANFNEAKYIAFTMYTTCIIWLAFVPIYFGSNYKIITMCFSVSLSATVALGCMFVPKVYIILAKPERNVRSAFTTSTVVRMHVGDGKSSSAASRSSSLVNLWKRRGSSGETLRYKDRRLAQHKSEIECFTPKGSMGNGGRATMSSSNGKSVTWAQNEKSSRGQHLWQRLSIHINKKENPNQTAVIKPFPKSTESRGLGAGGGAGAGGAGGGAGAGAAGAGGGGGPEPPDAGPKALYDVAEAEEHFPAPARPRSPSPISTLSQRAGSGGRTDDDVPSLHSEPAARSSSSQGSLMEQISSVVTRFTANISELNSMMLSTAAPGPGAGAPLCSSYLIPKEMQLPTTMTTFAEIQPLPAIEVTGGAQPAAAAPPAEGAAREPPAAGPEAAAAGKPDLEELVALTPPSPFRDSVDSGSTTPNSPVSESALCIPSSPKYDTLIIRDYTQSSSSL

IC50 (3[H]-MPEP binding) | inhibition at 10 µM | Compound
190 nM |  | CC(C)(C)Nc1c(-c2ccc(C#Cc3c[nH]cn3)s2)nc2cnccn12 [Example 185, 2-(5-((1H-imidazol-4-yl)ethynyl)thiophen-2-yl)-N-tert-butylimidazo[1,2-a]pyrazin-3-amine hydrochloride]
 | 79% | Cc1cccc(C#Cc2cccc(-c3nc4ccc(Cl)cn4c3NC3CCCCC3)c2)n1 [Example 193, 6-chloro-N-cyclohexyl-2-(3-((6-methylpyridin-2-yl)ethynyl)phenyl)imidazo[1,2-a]pyridin-3-amine]
 | 30% | Cc1cc(C)n2c(NCCc3ccccc3)c(-c3ccc(C#Cc4ccccc4)s3)nc2n1 [Example 194, 5,7-dimethyl-N-phenethyl-2-(5-(phenylethynyl)thiophen-2-yl)imidazo[1,2-a]pyrimidin-3-amine]
 | 53% | COc1cccc(CCNc2c(-c3ccc(C#Cc4ccccc4)s3)nc3nc(C)cc(C)n23)c1 [Example 195, N-(3-methoxyphenethyl)-5,7-dimethyl-2-(5-(phenylethynyl)thiophen-2-yl)imidazo[1,2-a]pyrimidin-3-amine]
 | 68% | COc1cccc(CCNc2c(-c3cc(C#Cc4ccccc4)cs3)nc3nc(C)cc(C)n23)c1 [Example 196, N-(3-methoxyphenethyl)-5,7-dimethyl-2-(4-(phenylethynyl)thiophen-2-yl)imidazo[1,2-a]pyrimidin-3-amine]
 | 31% | COc1cccc(CCNc2c(-c3ccc(C#Cc4ccccc4)o3)nc3nc(C)cc(C)n23)c1 [Example 197, N-(3-methoxyphenethyl)-5,7-dimethyl-2-(5-(phenylethynyl)furan-2-yl)imidazo[1,2-a]pyrimidin-3-amine]
 | 67% | Cc1cccn2c(NCc3ccc(Cl)cc3)c(-c3ccc(C#Cc4ccccc4)s3)nc12 [Example 198, N-(4-chlorobenzyl)-8-methyl-2-(5-(phenylethynyl)thiophen-2-yl)imidazo[1,2-a]pyridin-3-amine]
 | 57% | COc1cccc(CCNc2c(-c3cc(C#Cc4ccccc4)cs3)nc3cccc(C)n23)c1 [Example 199, N-(3-methoxyphenethyl)-5-methyl-2-(4-(phenylethynyl)thiophen-2-yl)imidazo[1,2-a]pyridin-3-amine]
 | 62% | CCCCC(C)(C)Nc1c(-c2cc(C#Cc3ccccc3)cs2)nc2cnccn12 [Example 200, N-(2-methylhexan-2-yl)-2-(4-(phenylethynyl)thiophen-2-yl)imidazo[1,2-a]pyrazin-3-amine]
 | 55% | C(#Cc1csc(-c2nc3cnccn3c2NCCc2ccccc2)c1)c1ccccc1 [Example 201, N-phenethyl-2-(4-(phenylethynyl)thiophen-2-yl)imidazo[1,2-a]pyrazin-3-amine]
 | 70% | COc1cccc(CCNc2c(-c3cc(C#Cc4ccccc4)cs3)nc3cnccn23)c1 [Example 202, N-(3-methoxyphenethyl)-2-(4-(phenylethynyl)thiophen-2-yl)imidazo[1,2-a]pyrazin-3-amine]
 | 60% | C(#Cc1csc(-c2nc3cnccn3c2NCCc2cccs2)c1)c1ccccc1 [Example 203, 2-(4-(phenylethynyl)thiophen-2-yl)-N-(2-(thiophen-2-yl)ethyl)imidazo[1,2-a]pyrazin-3-amine]
 | 30% | Clc1ccc(CNc2c(-c3ccc(C#Cc4ccccc4)s3)nc3ccccn23)cc1 [Example 204, N-(4-chlorobenzyl)-2-(5-(phenylethynyl)thiophen-2-yl)imidazo[1,2-a]pyridin-3-amine]
 | 92% | CCCC(C)(C)Nc1c(-c2ccc(C#Cc3ccccc3)s2)nc2cnccn12 [Example 205, N-(2-methylpentan-2-yl)-2-(5-(phenylethynyl)thiophen-2-yl)imidazo[1,2-a]pyrazin-3-amine]
 | 63% | C(#Cc1csc(-c2nc3cnccn3c2NCC2CCCCC2)c1)c1ccccc1 [Example 206, N-(cyclohexylmethyl)-2-(4-(phenylethynyl)thiophen-2-yl)imidazo[1,2-a]pyrazin-3-amine]
 | 35% | COc1ccccc1CNc1c(-c2ccc(C#Cc3ccccc3)o2)nc2cnccn12 [Example 207, N-(2-methoxybenzyl)-2-(5-(phenylethynyl)furan-2-yl)imidazo[1,2-a]pyrazin-3-amine]
 | 57% | C(#Cc1csc(-c2nc3ccccn3c2NCC2CCCCC2)c1)c1ccccc1 [Example 208, N-(cyclohexylmethyl)-2-(4-(phenylethynyl)thiophen-2-yl)imidazo[1,2-a]pyridin-3-amine]
 | 55% | CCCC(C)(C)Nc1c(-c2cc(C#Cc3ccccc3)cs2)nc2ccccn12 [Example 209, N-(2-methylpentan-2-yl)-2-(4-(phenylethynyl)thiophen-2-yl)imidazo[1,2-a]pyridin-3-amine]
 | 68% | Cc1cc(Br)c2nc(-c3cccc(C#Cc4cccc(C)n4)c3)c(NC(C)(C)CC(C)(C)C)n2c1 [Example 210, 8-bromo-6-methyl-2-(3-((6-methylpyridin-2-yl)ethynyl)phenyl)-N-(2,4,4-trimethylpentan-2-yl)imidazo[1,2-a]pyridin-3-amine]
 | 82% | Cc1cc(Br)c2nc(-c3cccc(C#Cc4ccccn4)c3)c(NC3CCCC3)n2c1 [Example 211, 8-bromo-N-cyclopentyl-6-methyl-2-(3-(pyridin-2-ylethynyl)phenyl)imidazo[1,2-a]pyridin-3-amine]
 | 90% | C(#Cc1csc(-c2nc3cnccn3c2NC2CCCC2)c1)c1ccccc1 [Example 212, N-cyclopentyl-2-(4-(phenylethynyl)thiophen-2-yl)imidazo[1,2-a]pyrazin-3-amine]
 | 84% | CC(Nc1c(-c2cc(C#Cc3ccccc3)cs2)nc2cnccn12)c1ccccc1 (stereo not drawn) [Example 213, N-(1-phenylethyl)-2-(4-(phenylethynyl)thiophen-2-yl)imidazo[1,2-a]pyrazin-3-amine]
 | 77% | CCCC(C)(C)Nc1c(-c2cc(C#Cc3ccccc3)cs2)nc2cnccn12 [Example 214, N-(2-methylpentan-2-yl)-2-(4-(phenylethynyl)thiophen-2-yl)imidazo[1,2-a]pyrazin-3-amine]
 | 51% | Cc1cc(Br)c2nc(-c3ccc(C#Cc4ccccn4)o3)c(NC3CCCCC3)n2c1 [Example 215, 8-bromo-N-cyclohexyl-6-methyl-2-(5-(pyridin-2-ylethynyl)furan-2-yl)imidazo[1,2-a]pyridin-3-amine]
 | 49% | C(#Cc1ccc(-c2nc3cnccn3c2NC2CCCC2)o1)c1ccccc1 [Example 216, N-cyclopentyl-2-(5-(phenylethynyl)furan-2-yl)imidazo[1,2-a]pyrazin-3-amine]
 | 62% | COc1cccc(CCNc2c(-c3cc(C#Cc4ccccc4)cs3)nc3nc(C)ccn23)c1 [Example 217, N-(3-methoxyphenethyl)-7-methyl-2-(4-(phenylethynyl)thiophen-2-yl)imidazo[1,2-a]pyrimidin-3-amine]
 | 38% | CC(C)(C)CC(C)(C)Nc1c(-c2ccc(C#Cc3ccccc3)s2)nc2c(OCc3ccccc3)cccn12 [Example 218, 8-(benzyloxy)-2-(5-(phenylethynyl)thiophen-2-yl)-N-(2,4,4-trimethylpentan-2-yl)imidazo[1,2-a]pyridin-3-amine]
